{
  "source": "patent US20200121801A1",
  "about": "“DRUG DELIVERY CONJUGATES CONTAINING UNNATURAL AMINO ACIDS AND METHODS FOR USING” (priority 2012, published 2020)",
  "key": {"[1]": {"system": "MDA-MB-231 (FR+)", "experiment": "In vitro activity, 3H-thymidine incorporation, MDA-MB-231", "format": "cell-based, Human", "method": "(§1) METHOD. In vitro activity against various cancer cell lines. IC50 values are generated for various cell lines. Cells are heavily seeded in 24-well Falcon plates and allowed to form nearly confluent monolayers overnight. Thirty minutes prior to the addition of the test compound, spent medium is aspirated from all wells and replaced with fresh folate-deficient RPMI medium (FFRPMI). A subset of wells are designated to receive media containing 100 μM folic acid. The cells in the designated wells are used to determine the targeting specificity. Without being bound by theory it is believed herein that the cytotoxic activity produced by test compounds in the presence of excess folic acid, i.e. where there is competition for FR binding, corresponds to the portion of the total activity that is unrelated to FR-specific delivery. Following one rinse with 1 mL of fresh FFRPMI containing 10% heat-inactivated fetal calf serum, each well receives 1 mL of medium containing increasing concentrations of test compound (4 wells per sample) in the presence or absence of 100 μM free folic acid as indicated. […] A 450 μL aliquot of each solubilized sample is transferred to a scintillation vial containing 3 mL of Ecolume scintillation cocktail and then counted in a liquid scintillation counter. Final results are expressed as the percentage of ^3H-thymidine incorporation relative to untreated controls."}, "[2]": {"system": "MDA-MB-231 tumors", "experiment": "TNBC tumor assay, s.c. MDA-MB-231 xenografts", "format": "in vivo, nu/nu mice", "conditions": "2 μmol/kg i.v. TIW, 2 weeks", "text": "METHOD. TNBC Tumor Assay. Triple negative breast cancer (TNBC) is a subtype characterized by lack of gene expression for estrogen, progesterone and Her2/neu. TNBC is difficult to treat, and the resulting death rate in patients is reportedly disproportionately higher than for any other subtype of breast cancer. A TNBC xenograft model was generated in an analogous way to the KB and M109 models described herein by implanting MDA-MB-231 breast cancer cells in nu/nu mice. Dosing is initiated when the s.c. tumors have an average volume between 110-150 (generally 130) mm^3 (t0), typically 17 days post tumor inoculation (PTI).\nEXAMPLE. […] Without being bound by theory, it is believed herein that the test animals were cured of the triple negative breast cancer."}, "[3]": {"system": "AN3CA (FR-)", "experiment": "In vitro activity, 3H-thymidine incorporation, AN3CA", "format": "cell-based, Human", "conditions": "evaluated from 0.1-100 nM", "method": "as §1"}, "[4]": {"system": "HepG2 (FR-)", "experiment": "In vitro activity, 3H-thymidine incorporation, HepG2", "format": "cell-based, Human", "conditions": "evaluated from 0.1-100 nM", "method": "as §1"}, "[5]": {"system": "KB-CR2000 (cisplatin resistant) tumors", "experiment": "Cisplatin-resistant KB-CR2000 tumor model", "format": "in vivo, mice"}, "[6]": {"system": "KB cells (FR+)", "format": "cell-based, Human", "method": "METHOD. Inhibition of Cellular DNA Synthesis. The compounds described herein are evaluated using an in vitro cytotoxicity assay that predicts the ability of the drug to inhibit the growth of folate receptor-positive cells, such as KB cells, RAW264.7 macrophages, and the like. It is to be understood that the choice of cell type can made on the basis of the susceptibility of those selected cells to the drug that forms the conjugate. The test compounds are comprised of folate linked to a respective chemotherapeutic drug, as prepared according to the processes described herein. The test cells are exposed to varying concentrations of folate-drug conjugate, and also in the absence or presence of at least a 100-fold excess of folic acid to assess activity as being specific to folate receptor mediation.\nEXAMPLE. Conjugates of cytotoxic drugs described herein are active against KB cells. The activity is mediated by the folate receptor as indicated by competition experiments using co-administered folic acid. KB cells are exposed for up to 7 h at 37° C. to the indicated concentrations of folate-drug conjugate in the absence or presence of at least a 100-fold excess of folic acid. The cells are then rinsed once with fresh culture medium and incubated in fresh culture medium for 72 hours at 37° C. Cell viability was assessed using a ^3H-thymidine incorporation assay.\nMETHOD. In vitro activity against various cancer cell lines. IC50 values are generated for various cell lines. Cells are heavily seeded in 24-well Falcon plates and allowed to form nearly confluent monolayers overnight. Thirty minutes prior to the addition of the test compound, spent medium is aspirated from all wells and replaced with fresh folate-deficient RPMI medium (FFRPMI). A subset of wells are designated to receive media containing 100 μM folic acid. The cells in the designated wells are used to determine the targeting specificity. Without being bound by theory it is believed herein that the cytotoxic activity produced by test compounds in the presence of excess folic acid, i.e. where there is competition for FR binding, corresponds to the portion of the total activity that is unrelated to FR-specific delivery. Following one rinse with 1 mL of fresh FFRPMI containing 10% heat-inactivated fetal calf serum, each well receives 1 mL of medium containing increasing concentrations of test compound (4 wells per sample) in the presence or absence of 100 μM free folic acid as indicated. Treated cells are pulsed for 2 h at 37° C., rinsed 4 times with 0.5 mL of media, and then chased in 1 mL of fresh medium up to 70 h. Spent medium is aspirated from all wells and replaced with fresh medium containing 5 μCi/mL ^3H-thymidine. Following a further 2 h 37° C. incubation, cells are washed 3 times with 0.5 mL of PBS and then treated with 0.5 mL of ice-cold 5% trichloroacetic acid per well. After 15 min, the trichloroacetic acid is aspirated and the cell material solubilized by the addition of 0.5 mL of 0.25 N sodium hydroxide for 15 min. A 450 μL aliquot of each solubilized sample is transferred to a scintillation vial containing 3 mL of Ecolume scintillation cocktail and then counted in a liquid scintillation counter. Final results are expressed as the percentage of ^3H-thymidine incorporation relative to untreated controls."}, "[7]": {"system": "IGROV1 (FR+)", "experiment": "In vitro activity, 3H-thymidine incorporation, IGROV1", "format": "cell-based, Human", "method": "as §1"}, "[8]": {"system": "H23 (FR-)", "experiment": "In vitro activity, 3H-thymidine incorporation, H23", "format": "cell-based, Human", "conditions": "evaluated from 0.1-100 nM", "method": "as §1"}, "[9]": {"system": "KB tumors", "experiment": "Inhibition of tumor growth, s.c. KB tumors in nu/nu mice", "format": "in vivo", "parameters": "key to In vivo activity (e): CR = complete response, where tumor volume, as defined herein, during the observation period was zero for all test animals in the group", "conditions": "for CR: 2 weeks", "method": "METHOD. Inhibition of Tumor Growth in Mice. […] For tumor cell inoculation, 1×10^6 M109 cells (a syngeneic lung carcinoma) in Balb/c strain, or 1×10^6 KB cells in nu/nu strain, in 100 μL are injected in the subcutis of the dorsal medial area (right axilla).\nMETHOD. Toxicity as Measured by Weight Loss. The percentage weight change of the test animals is determined on selected days post-tumor inoculation (PTI), and during dosing. The results are graphed."}, "[10]": {"target": "T1, folate receptors (FRs) on KB cells (Homo sapiens, UniProt P15328)", "T1 construct": "FR-positive KB cells are heavily seeded into 24-well cell culture plates; endogenous in cells; host or cells: KB cells", "T1 sequence (P15328 25-234)": "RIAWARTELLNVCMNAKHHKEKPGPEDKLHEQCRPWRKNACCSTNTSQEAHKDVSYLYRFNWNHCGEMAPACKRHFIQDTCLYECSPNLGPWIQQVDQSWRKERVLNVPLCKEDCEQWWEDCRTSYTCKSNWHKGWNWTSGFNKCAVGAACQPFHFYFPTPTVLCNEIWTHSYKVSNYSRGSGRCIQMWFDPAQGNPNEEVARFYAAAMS", "experiment": "Relative affinity assay (3H-folic acid competition) on KB cells", "format": "binding", "conditions": "folic acid = 1; in 10% serum/FDRPMI", "method": "METHOD. Relative Affinity Assay. The affinity for folate receptors (FRs) relative to folate is determined according to a previously described method (Westerhof, G. R., J. H. Schornagel, et al. (1995) Mol. Pharm. 48: 459-471) with slight modification. Briefly, FR-positive KB cells are heavily seeded into 24-well cell culture plates and allowed to adhere to the plastic for 18 h. Spent incubation media is replaced in designated wells with folate-free RPMI (FFRPMI) supplemented with 100 nM ^3H-folic acid in the absence and presence of increasing concentrations of test article or folic acid. Cells are incubated for 60 min at 37° C. and then rinsed 3 times with PBS, pH 7.4. Five hundred microliters of 1% SDS in PBS, pH 7.4, is added per well. Cell lysates are then collected and added to individual vials containing 5 mL of scintillation cocktail, and then counted for radioactivity. Negative control tubes contain only the ^3H-folic acid in FFRPMI (no competitor). Positive control tubes contain a final concentration of 1 mM folic acid, and CPMs measured in these samples (representing non-specific binding of label) are subtracted from all samples."}, "[11]": {"experiment": "Maximum tolerated dose (MTD)", "parameters": "species or system Sprague-Dawley rats", "conditions": "rat, in vivo", "method": "EXAMPLE. Maximum tolerated dose (MTD). […] Test compounds are administered by i.v., BIW, 2 wks in female Sprague-Dawley rats. Comparator compound EC0531 has a MTD of 0.33 μmol/kg, while EC1456 has a MTD of at least 0.51 μmol/kg, a […], as shown in FIG. 20. Histopathologic changes were not observed with doses of EC1456 at or below the MTD."}, "[12]": {"system": "NC1/ADR-RES-Cl2 (FR+)", "experiment": "In vitro activity, 3H-thymidine incorporation, NC1/ADR-RES-Cl2", "format": "cell-based, Human", "method": "as §1"}, "[13]": {"system": "A549 (FR-)", "experiment": "In vitro activity, 3H-thymidine incorporation, A549", "format": "cell-based, Human", "conditions": "evaluated from 0.1-100 nM", "method": "as §1"}},
  "note": "Entries after “also recorded” stand apart in the source; their conditions may differ. Marks after values point to notes of the source that are not given here.",
  "data": [
    {"compound": "CCCC(=O)OCN(C(=O)[C@@H](NC(=O)[C@H]1CCCCN1C)C(C)CC)C(C[C@@H](OC(C)=O)c1nc(C(=O)N[C@@H](Cc2ccc(O)cc2)C[C@H](C)C(=O)NNC(=O)OCCSSC[C@@H](NC(=O)[C@H](CCC(=O)NC[C@H](O)[C@@H](O)[C@H](O)[C@H](O)CO)NC(=O)[C@@H](CCC(=O)O)NC(=O)[C@H](CCC(=O)NC[C@H](O)[C@@H](O)[C@H](O)[C@H](O)CO)NC(=O)[C@@H](CCC(=O)O)NC(=O)[C@H](CCC(=O)NC[C@H](O)[C@@H](O)[C@H](O)[C@H](O)CO)NC(=O)CC[C@@H](NC(=O)c2ccc(NCc3cnc4nc(N)[nH]c(=O)c4n3)cc2)C(=O)O)C(=O)O)cs1)C(C)C", "note": "(stereo partly drawn) [EC1456]", "values": [
      {"measurement": "Competable up to 100 nM", "setting": "[1]", "result": "Yes"},
      {"measurement": "weight loss / gross whole animal toxicity", "setting": "[2]", "result": "did not cause gross whole animal toxicity; also recorded: not accompanied by significant weight loss"},
      {"measurement": "complete responses (test animals)", "setting": "[2]; observation nearly 135 days", "result": "4 of 5"},
      {"measurement": "Activity (IC50)", "setting": "[3]", "result": "Inactive"},
      {"measurement": "Activity (IC50)", "setting": "[4]", "result": "Inactive"},
      {"measurement": "CRs (test animals)", "setting": "[5]; 2 μmol/kg i.v. TIW, 2 weeks", "result": "5/5"},
      {"measurement": "regrowth of the tumor (test animals)", "setting": "[5]; 2 μmol/kg i.v. TIW, 2 weeks", "result": "1/5"},
      {"measurement": "weight loss / host animal toxicity", "setting": "[5]; 2 μmol/kg i.v. TIW, 2 weeks", "result": "did not exhibit significant host animal toxicity; also recorded: did not cause any weight loss"},
      {"measurement": "test animals cured (no regrowth)", "setting": "[5]; nearly 70 day observation period", "result": "4/5"},
      {"measurement": "improvement in specificity compared to comparator EC0531", "setting": "[6]", "result": 4, "unit": "fold"},
      {"measurement": "In vitro specificity (fold) (d)", "setting": "[6]; IC50 competed group vs non-competed group", "result": 944, "unit": "fold"},
      {"measurement": "specificity for the folate receptor by folic acid competition", "setting": "[6]; IC50 competed vs non-competed group", "result": "ca. 1000 fold"},
      {"measurement": "Competable up to 100 nM", "setting": "[6]; KB", "result": "Yes"},
      {"measurement": "Competable up to 100 nM", "setting": "[7]", "result": "Yes"},
      {"measurement": "Activity (IC50)", "setting": "[8]", "result": "Inactive"},
      {"measurement": "Toxicity: Avg. Weight Loss", "setting": "[9]; 0.5 μmol/kg, TIW, 3 weeks, untreated control 2.4%", "result": "<5", "unit": "%*"},
      {"measurement": "whole animal toxicity (body weight)", "setting": "[9]; 1 μmol/kg TIW, 2 wk", "result": "did not result in any observable whole animal toxicity; also recorded: does not show any evidence of whole animal toxicity"},
      {"measurement": "complete response (test animals)", "setting": "[9]; 1 μmol/kg i.v. TIW, 2 wk", "result": "4/4"},
      {"measurement": "CR", "setting": "[9]; 1.0 μmol/kg, TIW", "result": 60, "unit": "%"},
      {"measurement": "CR", "setting": "[9]; 2.0 μmol/kg, TIW", "result": 100, "unit": "%"},
      {"measurement": "activity competable with excess EC0923", "setting": "[9]; EC0923 50 or 100 μmol/kg co-dosed", "result": "competable"},
      {"measurement": "In vivo activity (e)", "setting": "[9]; subcutaneous KB tumor in nu/nu mice", "result": "CR"},
      {"measurement": "Relative Affinity (a) compared to folic acid", "setting": "[10]", "result": 0.27},
      {"measurement": "improvement in MTD over EC0531", "setting": "[11]", "result": 65, "unit": "%"},
      {"measurement": "MTD at 2 weeks", "setting": "[11]; iv, BIW, 2 wks, female Sprague-Dawley rats", "result": "≥ 0.51", "unit": "µmol/kg"},
      {"measurement": "Competable up to 100 nM", "setting": "[12]", "result": "Yes"},
      {"measurement": "Activity (IC50)", "setting": "[13]", "result": "Inactive (a)"}
    ]}
  ]
}
